A word on the inhibition: it is the percentage by which the read-out fell short of the control. One may read the pIC50 as the negative decadic logarithm of the IC50, by convention in mol/L. The pKi is −log10 of the Ki, conventionally taken in molar units. A higher pKi goes with a small Ki.

Consider 3 compounds from ChEMBL document CHEMBL3217424, “Total synthesis and anti-cholinesterase activity of marine-derived bis-indole alkaloid fascaplysin” (Medchemcomm, 2012).

pIC50, pKi: −log10 of the molar value. Activity calls are given as the source filed them. The rule behind the calls is not given here. Bounds are passed on as bounds.

Experiment [1] addresses Acetylcholinesterase (Electrophorus electricus) (UniProt O42275). The experiment is described as follows: Inhibition of Electrophorus electricus AChE using acetylthiocholine iodide as substrate at 10 uM after 30 mins by Ellman's method.
The target of experiment [2] is T1, Cholinesterase (Equus caballus, UniProt P81908). The experiment is described as follows: Inhibition of equine serum BuChE using S-butyrylthiocholine iodide as substrate after 30 mins by Ellman's method. (Ellman's reagent forms a yellow product with free thiols.)
T1 sequence (P81908 whole entry): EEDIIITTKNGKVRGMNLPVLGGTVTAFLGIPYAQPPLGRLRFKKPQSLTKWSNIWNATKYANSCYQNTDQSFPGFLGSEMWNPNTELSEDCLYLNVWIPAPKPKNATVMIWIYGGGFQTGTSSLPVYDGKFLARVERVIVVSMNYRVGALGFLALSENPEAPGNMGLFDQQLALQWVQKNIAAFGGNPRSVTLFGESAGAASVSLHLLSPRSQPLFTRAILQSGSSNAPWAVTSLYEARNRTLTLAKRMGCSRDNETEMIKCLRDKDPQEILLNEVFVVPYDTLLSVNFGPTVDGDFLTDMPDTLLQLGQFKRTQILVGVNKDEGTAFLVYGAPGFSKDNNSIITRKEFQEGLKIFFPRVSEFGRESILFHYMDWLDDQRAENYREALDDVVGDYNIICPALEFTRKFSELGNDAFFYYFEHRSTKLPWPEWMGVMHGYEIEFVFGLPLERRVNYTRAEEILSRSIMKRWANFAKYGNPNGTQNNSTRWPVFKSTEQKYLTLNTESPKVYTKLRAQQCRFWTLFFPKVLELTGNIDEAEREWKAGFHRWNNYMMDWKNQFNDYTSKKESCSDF
Experiment [3] concerns the target Cyclin-dependent kinase 5/CDK5 activator 1 (Homo sapiens, UniProt Q00535). The experiment is described as follows: Inhibition of CDK5/p-35 (unknown origin). In kind it is protein-complex assay.
The target in experiment [4] is T2, Acetylcholinesterase (Electrophorus electricus, UniProt O42275). The experiment can be described thus: Non-competitive inhibition of Electrophorus electricus AChE using acetylthiocholine iodide as substrate by Lineweaver-Burk reciprocal plot analysis.
T2 sequence (O42275 whole entry): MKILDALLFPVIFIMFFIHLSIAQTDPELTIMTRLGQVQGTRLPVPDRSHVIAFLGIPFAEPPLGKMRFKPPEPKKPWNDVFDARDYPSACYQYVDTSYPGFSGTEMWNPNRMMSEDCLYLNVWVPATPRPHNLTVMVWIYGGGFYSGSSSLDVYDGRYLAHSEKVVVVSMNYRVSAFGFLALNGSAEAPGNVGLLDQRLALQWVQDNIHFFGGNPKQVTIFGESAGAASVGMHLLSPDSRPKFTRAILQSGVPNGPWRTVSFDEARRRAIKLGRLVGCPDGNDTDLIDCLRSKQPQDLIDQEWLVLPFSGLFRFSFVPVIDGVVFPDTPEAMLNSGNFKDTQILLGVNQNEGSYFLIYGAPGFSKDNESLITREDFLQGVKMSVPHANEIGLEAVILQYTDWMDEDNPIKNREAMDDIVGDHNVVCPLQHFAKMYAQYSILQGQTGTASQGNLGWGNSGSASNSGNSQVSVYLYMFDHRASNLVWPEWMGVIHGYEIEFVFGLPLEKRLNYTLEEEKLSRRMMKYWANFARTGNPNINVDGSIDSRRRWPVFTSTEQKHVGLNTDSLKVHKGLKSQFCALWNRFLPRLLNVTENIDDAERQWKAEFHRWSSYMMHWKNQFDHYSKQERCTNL
In experiment [5] the target is T1, Cholinesterase. The experiment can be described thus: Non-competitive inhibition of equine serum BuChE using S-butyrylthiocholine iodide as substrate by Lineweaver-Burk reciprocal plot analysis.
Experiment [6] deals with Cyclin-dependent kinase 4/cyclin D2 (Homo sapiens, UniProt P11802+P30279). The experiment can be described thus: Inhibition of CDK4/cyclin-D2 (unknown origin). It is filed as protein-complex assay.
Chain of Cyclin-dependent kinase 4/cyclin D2 (P11802 whole entry): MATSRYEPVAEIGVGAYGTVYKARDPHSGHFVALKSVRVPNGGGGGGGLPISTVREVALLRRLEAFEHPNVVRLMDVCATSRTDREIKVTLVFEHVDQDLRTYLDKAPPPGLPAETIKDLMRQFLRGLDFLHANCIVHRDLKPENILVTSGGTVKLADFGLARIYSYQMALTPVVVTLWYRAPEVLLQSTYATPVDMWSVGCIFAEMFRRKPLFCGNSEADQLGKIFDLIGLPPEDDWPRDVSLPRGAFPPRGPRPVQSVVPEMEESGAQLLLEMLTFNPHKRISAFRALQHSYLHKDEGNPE
Chain of Cyclin-dependent kinase 4/cyclin D2 (P30279 whole entry): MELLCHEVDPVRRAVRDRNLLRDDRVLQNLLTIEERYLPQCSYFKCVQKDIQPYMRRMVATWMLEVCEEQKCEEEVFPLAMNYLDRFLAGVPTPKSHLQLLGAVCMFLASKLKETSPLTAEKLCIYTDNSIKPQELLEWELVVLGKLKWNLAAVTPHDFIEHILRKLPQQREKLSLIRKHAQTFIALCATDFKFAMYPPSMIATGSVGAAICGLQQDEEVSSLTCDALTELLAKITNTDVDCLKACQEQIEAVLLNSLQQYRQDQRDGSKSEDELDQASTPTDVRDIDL
Experiment [7] addresses T2, Acetylcholinesterase. The experiment is described as follows: Inhibition of Electrophorus electricus AChE using acetylthiocholine iodide as substrate after 30 mins by Ellman's method.
In experiment [8] the target is Cyclin-dependent kinase 2/cyclin E1 (Homo sapiens, UniProt P24941). The experiment can be described thus: Inhibition of CDK2/cyclin-E (unknown origin). It is filed as protein-complex assay.
Another experiment deals with CDK6/cyclin D2 (Homo sapiens, UniProt P30279+Q00534). The experiment is described as follows: Inhibition of CDK6/cyclin-D2 (unknown origin). In kind it is protein-complex assay.
Chain of CDK6/cyclin D2 (Q00534 whole entry): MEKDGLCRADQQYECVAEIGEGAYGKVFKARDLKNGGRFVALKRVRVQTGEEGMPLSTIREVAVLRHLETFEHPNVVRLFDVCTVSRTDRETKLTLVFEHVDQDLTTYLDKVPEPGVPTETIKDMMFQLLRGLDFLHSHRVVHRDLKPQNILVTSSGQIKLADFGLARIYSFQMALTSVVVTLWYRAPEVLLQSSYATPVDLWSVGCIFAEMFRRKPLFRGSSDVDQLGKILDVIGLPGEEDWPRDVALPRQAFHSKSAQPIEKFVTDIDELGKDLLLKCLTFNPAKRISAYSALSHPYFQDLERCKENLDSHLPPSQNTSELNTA
Chain of CDK6/cyclin D2 (P30279 whole entry): as the sequence (P30279 whole entry) above
For experiment [9], the target named is Cyclin-dependent kinase 1/cyclin B1 (Homo sapiens, UniProt P06493). The experiment can be described thus: Inhibition of CDK1/cyclin-B (unknown origin). It is filed as protein-complex assay.
The target in a further experiment is CDK4/Cyclin D3 (Homo sapiens, UniProt P11802). The experiment is described as follows: Inhibition of CDK4/cyclin-D3 (unknown origin). It is filed as protein-complex assay.
Chain of CDK4/Cyclin D3 (P11802 whole entry): as the sequence (P11802 whole entry) above
Chain of CDK4/Cyclin D3 (P30281 whole entry, further chain): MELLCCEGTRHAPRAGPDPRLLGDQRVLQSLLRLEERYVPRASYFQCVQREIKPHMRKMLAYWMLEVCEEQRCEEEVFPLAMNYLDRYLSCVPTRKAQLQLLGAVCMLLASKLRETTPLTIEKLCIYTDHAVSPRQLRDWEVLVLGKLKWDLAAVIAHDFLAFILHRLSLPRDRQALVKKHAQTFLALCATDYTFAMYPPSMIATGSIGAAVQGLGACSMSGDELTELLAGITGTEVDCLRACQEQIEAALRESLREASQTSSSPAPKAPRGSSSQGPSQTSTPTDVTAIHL
Experiment [10] concerns the target Acetylcholinesterase (Homo sapiens) (UniProt P22303). The experiment is described as follows: Ratio of physostigmine IC50 to compound IC50 for acetylcholinesterase (unknown origin).

Chain of Acetylcholinesterase (Electrophorus electricus) (O42275 24-633 limits assumed): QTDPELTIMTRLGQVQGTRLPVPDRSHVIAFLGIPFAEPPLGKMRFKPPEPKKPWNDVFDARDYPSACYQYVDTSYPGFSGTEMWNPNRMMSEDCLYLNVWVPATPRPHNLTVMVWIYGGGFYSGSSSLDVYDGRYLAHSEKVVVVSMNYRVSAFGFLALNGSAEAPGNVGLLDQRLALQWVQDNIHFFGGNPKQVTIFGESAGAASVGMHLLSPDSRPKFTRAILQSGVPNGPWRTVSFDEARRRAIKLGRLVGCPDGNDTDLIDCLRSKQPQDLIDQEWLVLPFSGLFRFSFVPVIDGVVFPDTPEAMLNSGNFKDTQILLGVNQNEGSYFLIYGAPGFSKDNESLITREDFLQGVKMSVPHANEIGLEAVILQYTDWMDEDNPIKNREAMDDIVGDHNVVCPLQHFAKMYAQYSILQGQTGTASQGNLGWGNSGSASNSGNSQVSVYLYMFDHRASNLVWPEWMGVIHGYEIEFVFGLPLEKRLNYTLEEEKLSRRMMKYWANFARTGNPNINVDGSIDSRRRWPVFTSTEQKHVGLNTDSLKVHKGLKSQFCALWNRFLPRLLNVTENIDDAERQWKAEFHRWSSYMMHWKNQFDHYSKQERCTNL
Chain of Cyclin-dependent kinase 5/CDK5 activator 1 (Q00535 whole entry): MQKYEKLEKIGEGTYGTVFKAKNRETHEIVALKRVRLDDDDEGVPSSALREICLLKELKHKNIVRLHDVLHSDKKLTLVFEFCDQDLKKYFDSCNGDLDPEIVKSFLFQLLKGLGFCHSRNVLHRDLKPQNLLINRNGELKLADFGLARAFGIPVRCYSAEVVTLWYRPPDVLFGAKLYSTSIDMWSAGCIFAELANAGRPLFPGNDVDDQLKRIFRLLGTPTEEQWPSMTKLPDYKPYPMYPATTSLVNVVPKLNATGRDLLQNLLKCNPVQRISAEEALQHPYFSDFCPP
Chain of Cyclin-dependent kinase 5/CDK5 activator 1 (Q15078 whole entry, further chain): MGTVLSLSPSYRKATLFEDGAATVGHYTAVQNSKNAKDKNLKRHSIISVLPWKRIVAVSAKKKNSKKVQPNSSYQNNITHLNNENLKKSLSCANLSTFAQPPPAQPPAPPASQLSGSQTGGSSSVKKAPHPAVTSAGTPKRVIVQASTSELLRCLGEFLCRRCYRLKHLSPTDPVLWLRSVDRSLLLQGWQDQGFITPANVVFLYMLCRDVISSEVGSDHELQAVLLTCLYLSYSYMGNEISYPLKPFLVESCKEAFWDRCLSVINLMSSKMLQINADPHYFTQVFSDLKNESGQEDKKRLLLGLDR
Chain of Acetylcholinesterase (Homo sapiens) (P22303 whole entry): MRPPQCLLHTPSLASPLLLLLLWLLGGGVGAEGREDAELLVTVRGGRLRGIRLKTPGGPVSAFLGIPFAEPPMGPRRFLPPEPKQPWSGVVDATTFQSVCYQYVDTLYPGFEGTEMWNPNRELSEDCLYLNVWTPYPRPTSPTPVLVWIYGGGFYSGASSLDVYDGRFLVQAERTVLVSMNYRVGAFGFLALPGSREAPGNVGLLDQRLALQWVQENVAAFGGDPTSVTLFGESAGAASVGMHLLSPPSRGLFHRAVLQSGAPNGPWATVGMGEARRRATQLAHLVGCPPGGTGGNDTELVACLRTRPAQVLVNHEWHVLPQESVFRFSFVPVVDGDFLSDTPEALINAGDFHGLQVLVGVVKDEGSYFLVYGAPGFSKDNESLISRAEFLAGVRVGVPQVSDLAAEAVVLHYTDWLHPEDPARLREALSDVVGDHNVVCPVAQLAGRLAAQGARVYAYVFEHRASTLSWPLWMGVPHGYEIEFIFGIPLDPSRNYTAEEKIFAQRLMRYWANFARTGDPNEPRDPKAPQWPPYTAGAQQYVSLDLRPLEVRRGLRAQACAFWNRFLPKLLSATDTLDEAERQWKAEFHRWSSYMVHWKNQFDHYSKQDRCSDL

Take `O=C(c1ccccc1Cl)c1nccc2c1[nH]c1ccccc12`: in experiment [1], the inhibition result is “inactive”.
On to `O=C1c2ccccc2-[n+]2ccc3c([nH]c4ccccc43)c21` [FASCAPLYSIN], for which the pIC50 on Cholinesterase [2] is 4.04; in [3], 4.70; in [6], < 4.00; against Acetylcholinesterase [7], 5.83; in experiment [8], < 4.30; against CDK6/cyclin D2, < 4.30. Besides, the pIC50 (in experiment [9]; on CDK4/Cyclin D3) was < 4.00 throughout. For the same compound, the pKi was 5.64 on Acetylcholinesterase [4] and 4.31 on Cholinesterase [5]. The compound also had an inhibition in experiment [1] of 86%.
With `COC(=O)C1=CO[C@@H](C)[C@H]2C[n+]3ccc4c([nH]c5ccccc54)c3C[C@H]12`, the Ratio IC50 in experiment [10] was determined as 10.
